pEC50: −log10 of the molar value.
Target: mGluR5 (Homo sapiens, UniProt P41594)
Assay: mGluR5 positive allosteric modulator (PAM) functional assay
Assay type: cell-based

Sequence of mGluR5 (P41594 21-1212): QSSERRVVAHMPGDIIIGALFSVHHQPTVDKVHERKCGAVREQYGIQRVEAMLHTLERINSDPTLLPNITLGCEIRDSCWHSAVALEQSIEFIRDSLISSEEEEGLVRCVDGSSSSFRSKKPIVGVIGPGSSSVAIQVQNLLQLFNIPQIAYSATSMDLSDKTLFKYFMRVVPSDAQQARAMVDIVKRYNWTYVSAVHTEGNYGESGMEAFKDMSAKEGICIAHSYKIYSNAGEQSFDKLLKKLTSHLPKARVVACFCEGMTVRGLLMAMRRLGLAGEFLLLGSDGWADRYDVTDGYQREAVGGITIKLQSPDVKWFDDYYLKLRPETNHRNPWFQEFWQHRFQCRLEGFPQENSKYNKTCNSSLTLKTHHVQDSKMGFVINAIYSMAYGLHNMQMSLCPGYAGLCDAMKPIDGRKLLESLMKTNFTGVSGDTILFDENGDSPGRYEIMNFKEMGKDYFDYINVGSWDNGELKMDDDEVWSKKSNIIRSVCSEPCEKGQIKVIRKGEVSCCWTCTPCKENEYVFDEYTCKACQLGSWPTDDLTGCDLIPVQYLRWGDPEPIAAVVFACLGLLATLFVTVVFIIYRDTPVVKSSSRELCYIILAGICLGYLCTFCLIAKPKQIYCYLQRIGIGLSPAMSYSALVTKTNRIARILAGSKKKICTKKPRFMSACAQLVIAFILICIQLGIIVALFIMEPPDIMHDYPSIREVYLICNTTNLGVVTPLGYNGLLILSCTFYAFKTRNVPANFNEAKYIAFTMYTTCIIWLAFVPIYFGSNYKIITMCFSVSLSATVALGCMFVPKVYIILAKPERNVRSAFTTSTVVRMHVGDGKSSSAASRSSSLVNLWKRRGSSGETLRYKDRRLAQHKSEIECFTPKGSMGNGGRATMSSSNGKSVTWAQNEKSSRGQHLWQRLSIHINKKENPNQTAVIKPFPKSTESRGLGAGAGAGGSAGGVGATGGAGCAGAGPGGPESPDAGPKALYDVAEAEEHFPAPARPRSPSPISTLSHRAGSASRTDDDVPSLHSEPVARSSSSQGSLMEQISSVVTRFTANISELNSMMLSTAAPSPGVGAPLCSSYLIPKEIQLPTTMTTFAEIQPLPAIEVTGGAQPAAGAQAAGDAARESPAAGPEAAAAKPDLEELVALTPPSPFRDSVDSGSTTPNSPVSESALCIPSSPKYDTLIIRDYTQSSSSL

Row | pEC50 | Structure (SMILES)
1 | 6.00 to 6.52 | CNC(C)(C)c1nc(-c2ccc(C#Cc3ccccn3)cn2)no1 [Compound 144, N-methyl-2-(3-(5-(pyridin-2-ylethynyl)pyridin-2-yl)-1,2,4-oxadiazol-5-yl)propan-2-amine]
2 | 6.00 to 6.52 | C(#Cc1ccc(-c2noc(C3CCCN3)n2)nc1)c1ccccc1 (stereo not shown) [Compound 165, 3-(5-(phenylethynyl)pyridin-2-yl)-5-(pyrrolidin-2-yl)-1,2,4-oxadiazole]
3 | 7.00 to 7.52 | C(#Cc1ccccn1)c1ccc(-c2noc(C3CCCC3)n2)nc1 [Compound 137, 5-cyclopentyl-3-(5-(pyridin-2-ylethynyl)pyridin-2-yl)-1,2,4-oxadiazole]
4 | 6.52 to 7.00 | CCOC(=O)NC(CC)c1nc(-c2ccc(C#Cc3ccccn3)cn2)no1 (stereo not shown) [Compound 146, ethyl (1-(3-(5-(pyridin-2-ylethynyl)pyridin-2-yl)-1,2,4-oxadiazol-5-yl)propyl)carbamate]
5 | 6.00 to 6.52 | CN1CCC1c1nc(-c2ccc(C#Cc3ccccn3)cn2)no1 (stereo not shown) [Compound 150, 5-(1-methylazetidin-2-yl)-3-(5-(pyridin-2-ylethynyl)pyridin-2-yl)-1,2,4-oxadiazole]
6 | 6.00 to 6.52 | CN1C[C@@H](F)C[C@@H]1c1nc(-c2ccc(C#Cc3ccccn3)cn2)no1 [Compound 156, 5-((2R,4S)-4-fluoro-1-methylpyrrolidin-2-yl)-3-(5-(pyridin-2-ylethynyl)pyridin-2-yl)-1,2,4-oxadiazole]
7 | 7.00 to 7.52 | CC(c1nc(-c2ccc(C#Cc3ccccn3)cn2)no1)N1CCCC1(C)C (stereo not shown) [Compound 139, 5-(1-(2,2-dimethylpyrrolidin-1-yl)ethyl)-3-(5-(pyridin-2-ylethynyl)pyridin-2-yl)-1,2,4-oxadiazole]
8 | 6.00 to 6.52 | CN1CC(F)(F)C[C@@H]1c1nc(-c2ccc(C#Cc3ccccn3)cn2)no1 [Compound 154, (R)-5-(4,4-difluoro-1-methylpyrrolidin-2-yl)-3-(5-(pyridin-2-ylethynyl)pyridin-2-yl)-1,2,4-oxadiazole]
9 | 7.00 to 7.52 | CCC(c1nc(-c2ccc(C#Cc3ccccn3)cn2)no1)N(C)C (stereo not shown) [Compound 148, N,N-dimethyl-1-(3-(5-(pyridin-2-ylethynyl)pyridin-2-yl)-1,2,4-oxadiazol-5-yl)propan-1-amine]
10 | 6.52 to 7.00 | CC(c1nc(-c2ccc(C#Cc3ccccn3)cn2)no1)N(C)C (stereo not shown) [Compound 143, N,N-dimethyl-1-(3-(5-(pyridin-2-ylethynyl)pyridin-2-yl)-1,2,4-oxadiazol-5-yl)ethanamine]

Continued, molecule first:

Row | Structure (SMILES) | pEC50
11 | Fc1cccc(C#Cc2ccc(-c3noc(C4COCCN4)n3)nc2)c1 (stereo not shown) [Compound 98] | 7.00 to 7.52
12 | CC[C@@H](C)c1nc(-c2ccc(C#Cc3cccc(F)c3)cc2)no1 (single isomer, unassigned) [Compound 31] | 6.00 to 6.52
13 | CCC(OC)c1nc(-c2ccc(C#Cc3ccncc3)nc2)no1 (stereo not shown) [Compound 93] | 7.00 to 7.52
14 | CC(c1nc(-c2ccc(C#Cc3cccc(F)c3)cc2)no1)N1CCCC1 (stereo not shown) [Compound 53, 3-(4-((3-fluorophenyl)ethynyl)phenyl)-5-(1-(pyrrolidin-1-yl)ethyl)-1,2,4-oxadiazole] | 6.00 to 6.52
15 | CCC(N)c1nc(-c2ccc(C#Cc3cccc(F)c3)cn2)no1 (stereo not shown) [Compound 114, 1-(3-(5-((3-fluorophenyl)ethynyl)pyridin-2-yl)-1,2,4-oxadiazol-5-yl)propan-1-amine] | 6.52 to 7.00
16 | CNC(C)c1nc(-c2ccc(C#Cc3ccncc3)cc2)no1 (stereo not shown) [Compound 79, N-methyl-1-(3-(4-(pyridin-4-ylethynyl)phenyl)-1,2,4-oxadiazol-5-yl)ethanamine] | 6.52 to 7.00
17 | Fc1cccc(C#Cc2ccc(-c3noc(C4CCCN4)n3)nc2)c1 (stereo in doubt) [Compound 121, (S)-3-(5-((3-fluorophenyl)ethynyl)pyridin-2-yl)-5-(pyrrolidin-2-yl)-1,2,4-oxadiazole] | 6.00 to 6.52
18 | Fc1cccc(C#Cc2ccc(-c3noc(C4CCCC4)n3)nc2)c1 [Compound 95, 5-cyclopentyl-3-(5-((3-fluorophenyl)ethynyl)pyridin-2-yl)-1,2,4-oxadiazole] | ≥ 7.52
19 | C#CCN1CCCC1c1nc(-c2ccc(C#Cc3cccc(F)c3)cn2)no1 (stereo not shown) [Compound 124, 3-(5-((3-fluorophenyl)ethynyl)pyridin-2-yl)-5-(1-(prop-2-yn-1-yl)pyrrolidin-2-yl)-1,2,4-oxadiazole] | ≥ 7.52
20 | Fc1cccc(C#Cc2ccc(-c3noc(C4CCCN4)n3)nc2)c1 (stereo in doubt) [Compound 120, (R)-3-(5-((3-fluorophenyl)ethynyl)pyridin-2-yl)-5-(pyrrolidin-2-yl)-1,2,4-oxadiazole] | 6.52 to 7.00
21 | COCCc1nc(-c2ccc(C#Cc3cccc(F)c3)cc2)no1 [Compound 40, 3-(4-((3-fluorophenyl)ethynyl)phenyl)-5-(2-methoxyethyl)-1,2,4-oxadiazole] | 6.00 to 6.52
22 | COC(C)c1nc(-c2ccc(C#Cc3cccc(F)c3)cn2)no1 (stereo not shown) [Compound 96, 3-(5-((3-fluorophenyl)ethynyl)pyridin-2-yl)-5-(1-methoxyethyl)-1,2,4-oxadiazole] | ≥ 7.52
23 | CO[C@H]1CN[C@@H](c2nc(-c3ccc(C#Cc4cccc(F)c4)cn3)no2)C1 [Compound 133, 3-(5-((3-fluorophenyl)ethynyl)pyridin-2-yl)-5-((2R,4R)-4-methoxypyrrolidin-2-yl)-1,2,4-oxadiazole] | 7.00 to 7.52
24 | CCC(C)c1nc(-c2ccc(C#Cc3ccccn3)cc2)no1 (stereo not shown) [Compound 67] | ≥ 7.52
25 | CCC(C)c1nc(-c2ccc(C#Cc3cccc(F)c3)nc2)no1 (stereo not shown) [Compound 82, 5-(sec-butyl)-3-(6-((3-fluorophenyl)ethynyl)pyridin-3-yl)-1,2,4-oxadiazole] | 7.00 to 7.52
26 | CN1CCCC1c1nc(-c2ccc(C#Cc3cccc(F)c3)cc2)no1 (stereo not shown) [Compound 47, 3-(4-((3-fluorophenyl)ethynyl)phenyl)-5-(1-methylpyrrolidin-2-yl)-1,2,4-oxadiazole] | 6.52 to 7.00
27 | CC(C)(C)c1nc(-c2ccc(C#Cc3cccc(F)c3)cc2)no1 [Compound 27, 5-(tert-butyl)-3-(4-((3-fluorophenyl)ethynyl)phenyl)-1,2,4-oxadiazole] | 6.52 to 7.00
28 | C(#Cc1ccc(-c2noc(C3CCCN3)n2)cc1)c1ccncc1 (stereo not shown) [Compound 77, 3-(4-(pyridin-4-ylethynyl)phenyl)-5-(pyrrolidin-2-yl)-1,2,4-oxadiazole] | 6.52 to 7.00
29 | CCC(C)c1nc(-c2ccc(C#Cc3cccnc3)cc2)no1 (stereo not shown) [Compound 81, 5-(sec-butyl)-3-(4-(pyridin-3-ylethynyl)phenyl)-1,2,4-oxadiazole] | 6.00 to 6.52
30 | CC[C@H](C)c1nc(-c2ccc(C#Cc3cccc(F)c3)cc2)no1 (single isomer, unassigned) [Compound 30] | 6.00 to 6.52
31 | CCC(CC)c1nc(-c2ccc(C#Cc3cccc(F)c3)cc2)no1 [Compound 34, 3-(4-((3-fluorophenyl)ethynyl)phenyl)-5-(pentan-3-yl)-1,2,4-oxadiazole] | 6.52 to 7.00

Reference: patent US10533000B2, “Metabotrophic glutamate receptor 5 modulators and methods of use thereof” (Sunovion Pharmaceuticals, Inc., priority 2011, dated 2020)
